Data reported in article PMC4030749 (Molecular cancer therapeutics, 2012).
Values joined by “and” are separate entries in the source; they are usually repeats but may differ in a detail not shown here. Identical values can stand only once.

Columns and labels:
Sm3e/C825 bsAb [1] = experiment: Binding affinity of Sm3e/C825 bsAb; details: unlabeled (no metal) DOTA
[2] = test system: LS174T and C6 tumor-bearing mice; experiment: Pretargeted organ/tissue biodistribution in tumor-bearing mice; assay type: in vivo
Sm3e/C825 bsAb [3] = details: read-out: binding affinity (KD) to bsAb; cited from earlier work
[4] = pretargeted protocol, 24 h p.i., n=3
[5] = pretargeted protocol, 4 h p.i., n=3
[6] = pretargeted protocol, 48 h p.i., n=3

SMILES: O=C(O)CN1CCN(CC(=O)O)CCN(CC(=O)O)CCN(CC(=O)O)CC1 [DOTA, 1,4,7,10-Tetraazacyclododecane-1,4,7,10-tetraacetic acid]
- binding to pretargeted anti-DOTA binding sites (Sm3e/C825 bsAb [1]): no observable binding

SMILES: O=C([O-])CN1CCN(CC(=O)[O-])CCN(CC(=O)[O-])CCN(CC(=O)[O-])CC1.[111In+3] [^111In-DOTA]
- Biodistribution, LS174T Tumor (antigen-positive) [2, 4]: 0.5 ± 0.1 %ID/g
- Tumor/organ ratio, LS174T tumor-to-Kidneys (both) [2, 4]: 1.2 ± 0.4
- Kd (Sm3e/C825 bsAb [3]): 0.02 µM

SMILES: O=C([O-])CN1CCN(CC(=O)[O-])CCN(CC(=O)[O-])CCN(CC(=O)[O-])CC1.[177Lu+3].[H+] [^177Lu-DOTA]
- antigen-positive tumor uptake, pretargeted versus ^177Lu-DOTA alone ([2]; 4 h post-injection): approximately 90 fold
- Biodistribution, Adipose [2, 5]: 2.78 ± 1.08 %ID/g
- Biodistribution, Blood [2, 5]: 0.42 ± 0.02 %ID/g
- Biodistribution, Bone (femur) [2, 5]: 1.49 ± 0.38 %ID/g
- Biodistribution, C6 Tumor (antigen-negative) [2, 5]: 9.82 ± 0.35 (0.26 ± 0.08 g) %ID/g
- Biodistribution, Heart [2, 5]: 0.25 ± 0.16 %ID/g
- Biodistribution, Kidneys (both) [2, 5]: 0.92 ± 0.05 %ID/g
- Biodistribution, LS174T Tumor (antigen-positive) [2, 5]: 7.44 ± 0.41 (0.09 ± 0.03 g) %ID/g
- Biodistribution, Lg Intestine [2, 5]: 0.13 ± 0.09 %ID/g
- Biodistribution, Liver [2, 5]: 0.59 ± 0.21 %ID/g
- Biodistribution, Lung [2, 5]: 1.25 ± 0.43 %ID/g
- Biodistribution, Muscle [2, 5]: 1.56 ± 0.56 %ID/g
- Biodistribution, Skin [2, 5]: 4.68 ± 1.06 %ID/g
- Biodistribution, Sm Intestine [2, 5]: 0.28 ± 0.02 %ID/g
- Biodistribution, Spleen [2, 5]: 0.39 ± 0.09 %ID/g
- Biodistribution, Stomach (with contents) [2, 5]: 0.21 ± 0.12 %ID/g
- Tumor/organ ratio, Adipose [2, 5]: 3.2 ± 1.5
- Tumor/organ ratio, Bone (femur) [2, 5]: 5.3 ± 1.6
- Tumor/organ ratio, C6 Tumor [2, 5]: 0.7 ± 0.1
- Tumor/organ ratio, Heart [2, 5]: 49 ± 36
- Tumor/organ ratio, LS174T Tumor [2, 5]: 1
- Tumor/organ ratio, LS174T tumor-to-Blood [2, 5]: 18 ± 2
- Tumor/organ ratio, Lg Intestine [2, 5]: 80 ± 36
- Tumor/organ ratio, Liver [2, 5]: 13.9 ± 3.7
- Tumor/organ ratio, Lung [2, 5]: 7.2 ± 3.7
- Tumor/organ ratio, Muscle [2, 5]: 5.3 ± 1.6
- Tumor/organ ratio, Skin [2, 5]: 1.7 ± 0.4
- Tumor/organ ratio, Sm Intestine [2, 5]: 27 ± 4
- Tumor/organ ratio, Spleen [2, 5]: 20 ± 5
- Tumor/organ ratio, Stomach (with contents) [2, 5]: 48 ± 22
- Biodistribution, Adipose [2, 4]: 0.67 ± 0.12 %ID/g
- Biodistribution, Blood [2, 4]: 0.04 ± 0.01 %ID/g
- Biodistribution, Bone (femur) [2, 4]: 0.43 ± 0.12 %ID/g
- Biodistribution, C6 Tumor (antigen-negative) [2, 4]: 4.23 ± 0.54 (0.26 ± 0.07 g) %ID/g
- Biodistribution, Heart [2, 4]: 0.05 ± 0.01 %ID/g
- Biodistribution, Kidneys (both) [2, 4]: 0.88 ± 0.16 %ID/g
- Biodistribution, LS174T Tumor (antigen-positive) [2, 4]: 14.3 ± 1.8 %ID/g and 14.34 ± 1.83 (0.21 ± 0.10 g) %ID/g
- Biodistribution, Lg Intestine [2, 4]: 0.52 ± 0.56 %ID/g
- Biodistribution, Liver [2, 4]: 0.51 ± 0.23 %ID/g
- Biodistribution, Lung [2, 4]: 0.37 ± 0.07 %ID/g
- Biodistribution, Muscle [2, 4]: 0.41 ± 0.24 %ID/g
- Biodistribution, Skin [2, 4]: 1.05 ± 0.25 %ID/g
- Biodistribution, Sm Intestine [2, 4]: 0.08 ± 0.04 %ID/g
- Biodistribution, Spleen [2, 4]: 0.29 ± 0.09 %ID/g
- Biodistribution, Stomach (with contents) [2, 4]: 0.09 ± 0.07 %ID/g
- Tumor/organ ratio, Adipose [2, 4]: 23 ± 6
- Tumor/organ ratio, Bone (femur) [2, 4]: 38 ± 16
- Tumor/organ ratio, C6 Tumor [2, 4]: 3.4 ± 0.3
- Tumor/organ ratio, Heart [2, 4]: 323 ± 108
- Tumor/organ ratio, LS174T Tumor [2, 4]: 1
- Tumor/organ ratio, LS174T tumor-to-Blood [2, 4]: 380 ± 90
- Tumor/organ ratio, Lg Intestine [2, 4]: 83 ± 53
- Tumor/organ ratio, Liver [2, 4]: 33 ± 11
- Tumor/organ ratio, Lung [2, 4]: 39 ± 3
- Tumor/organ ratio, Muscle [2, 4]: 57 ± 41
- Tumor/organ ratio, Skin [2, 4]: 14 ± 2
- Tumor/organ ratio, Sm Intestine [2, 4]: 217 ± 76
- Tumor/organ ratio, Spleen [2, 4]: 52 ± 12
- Tumor/organ ratio, Stomach (with contents) [2, 4]: 252 ± 119
- Biodistribution, Adipose [2, 6]: 0.60 ± 0.29 %ID/g
- Biodistribution, Bone (femur) [2, 6]: 0.24 ± 0.10 %ID/g
- Biodistribution, C6 Tumor (antigen-negative) [2, 6]: 2.89 ± 2.28 (0.28 ± 0.13 g) %ID/g
- Biodistribution, Heart [2, 6]: 0.07 ± 0.03 %ID/g
- Biodistribution, Kidneys (both) [2, 6]: 0.62 ± 0.19 %ID/g
- Biodistribution, LS174T Tumor (antigen-positive) [2, 6]: 13.44 ± 3.25 (0.49 ± 0.09 g) %ID/g
- Biodistribution, Lg Intestine [2, 6]: 0.11 ± 0.04 %ID/g
- Biodistribution, Liver [2, 6]: 0.56 ± 0.35 %ID/g
- Biodistribution, Lung [2, 6]: 0.21 ± 0.04 %ID/g
- Biodistribution, Muscle [2, 6]: 0.15 ± 0.07 %ID/g
- Biodistribution, Skin [2, 6]: 0.71 ± 0.20 %ID/g
- Biodistribution, Sm Intestine [2, 6]: 0.14 ± 0.11 %ID/g
- Biodistribution, Spleen [2, 6]: 0.64 ± 0.60 %ID/g
- Biodistribution, Stomach (with contents) [2, 6]: 0.22 ± 0.24 %ID/g
- Tumor/organ ratio, Adipose [2, 6]: 28 ± 13
- Tumor/organ ratio, Bone (femur) [2, 6]: 60 ± 19
- Tumor/organ ratio, C6 Tumor [2, 6]: 10 ± 9
- Tumor/organ ratio, Heart [2, 6]: 244 ± 85
- Tumor/organ ratio, LS174T Tumor [2, 6]: 1
- Tumor/organ ratio, Lg Intestine [2, 6]: 128 ± 16
- Tumor/organ ratio, Liver [2, 6]: 32 ± 13
- Tumor/organ ratio, Lung [2, 6]: 63 ± 6
- Tumor/organ ratio, Muscle [2, 6]: 105 ± 40
- Tumor/organ ratio, Skin [2, 6]: 20 ± 8
- Tumor/organ ratio, Sm Intestine [2, 6]: 183 ± 129
- Tumor/organ ratio, Spleen [2, 6]: 40 ± 21
- Tumor/organ ratio, Stomach (with contents) [2, 6]: 276 ± 236
- Kd (Sm3e/C825 bsAb [3]): 0.0004 µM
